Reference: US10087173B2, “Substituted aminothiazoles as inhibitors of cancers, including hepatocellular carcinoma, and as inhibitors of hepatitis virus replication” (BARUCH S. BLUMBERG INSTITUTE, priority 2011, dated 2018)
Like-named read-outs stand apart in the source and are kept apart here.

Key:
Assay type in all cases: cell-based
Huh7 cells = experiment: MTT cell viability assay, Huh7 cells, 72 h; details: read-out: Huh7 CC50
From the text: (§1) Huh-7 cells and derived from hepatocellular carcinoma cells, and were donated by Dr. Xuanyong Lu, (Drexel University College of Medicine, Doylestown, Pa.). THLE-2 were purchased from American Type Culture Collection (Manassas, Va.). PH5CH were donated by Dr. Masayuki Noguchi (University of Tsukuba, Ibaraki, Japan). THLE-2 and PH5CH have been immortalized through stable transfection of the SV40 large T antigen in normal hepatocytes, and are thus cell lines that are representative of normal hepatocytes rather than HCC cells. THLE2 have been confirmed to not form tumors in athymic mice. All cell lines were cultured and maintained in 5% CO2 at 37° C. Huh-7 were maintained in the culture media DMEM/F12 (Dulbecco's Modified Eagle Medium) with 10% Fetal bovine serum (FBS), 100 μg/mL penicillin, 100 units/mL streptomycin, and 50 μg/mL normocin. THLE-2 and PH5CH were maintained in the culture media Brochial Epithelial Growth Media (BEGM) with 10% FBS, 100 μg/mL penicillin, 100 units/mL streptomycin, with the following additives form the prepackaged kit: Bovine pituitary extract (BPE), insulin, hydrocortisone, retinoic acid, transferrin, triiodothyronine, supplemented with 5 ng/ml human epidermal growth factor and 70 ng/ml phosphoethanolamine (Lonza Walkersville Inc., Walkersville, Md.).
(§2) Huh7 cells were plated on 96-well plates at 2.0×10^4 cells per well to permit grow in the presence of compounds of the disclosure. Compounds of the disclosure were prediluted and transferred to cell plates by automated liquid handling. Cells were incubated with compounds of the disclosure for 72 hours, after which culture growth and viability were assessed by addition of 50 μg/mL 3-(4,5-Dimethyl-2-thiazolyl)-2,5-diphenyl-2H-tetrazolium bromide (MTT) incubation for 4 hours at 37° C. Solubilization buffer (0.01M HCl, 10% SDS) was added followed by incubation at 37° C. overnight. Absorbance was measured at 570 nm (reference 630 nm). Compound of the disclosure were tested in Huh7, THLE-2 and PH5CH, over eight-point dilutions in half-log steps, testing 50.0, 16.6, 5.0, 1.66, 0.5, 0.166, 0.05, and 0.016 μM in 0.5% DMSO, with each concentration in duplicate wells. […] Each compound was tested from 2 to 7 times in separate assay trials.

[1] = MTT cell viability assay, THLE2 cells, 72 h; details: human, immortalized normal hepatocytes THLE2, 72 hours, 0.016-50.0 μM tested
From the text: as §1, with “THLE2 have been confirmed to not form tumors in athymic mice.” left out
as §2
(§3) Selectivity of toxicity in HCC-derived cells over normal liver-derived cells is important for the purposes of developing a therapy that specifically targets the cancer with low toxicity for […]. The Selective Index (SI) is the ratio of CC50 in normal cells (THLE2 or PH5CH) over the CC50 in the liver cancer derived cells; thus, the higher the number, the lower the potential toxicity at an efficacious dose.

[2] = MTT cell viability assay, PH5CH cells, 72 h; details: human, immortalized normal hepatocytes PH5CH, 0.016-50.0 μM tested
From the text: as §1, §2, §3

THLE2 cells = experiment: MTT cell viability assay, THLE2 cells, 72 h; details: immortalized normal hepatocytes THLE2, 72 hours, 0.016-50.0 μM tested
From the text: as §1, with “THLE2 have been confirmed to not form tumors in athymic mice.” left out
as §2, §3

PH5CH cells = experiment: MTT cell viability assay, PH5CH cells, 72 h; details: immortalized normal hepatocytes PH5CH, 0.016-50.0 μM tested
From the text: as §1, §2, §3

[3] = Homo sapiens, Huh-7, hepatocellular carcinoma derived Huh7 cells, 72 hours, MTT, 0.016-50.0 μM tested

SMILES | CC50 (Huh7 cells; [3]) [µM] | CC50 at 72 h [1] [µM] | CC50 at 72 h [2] [µM] | CC50 (Huh7 cells; Homo sapiens, Huh-7, 72 h) [µM] | CC50 (Huh7 cells; hepatocellular carcinoma derived Huh7 cells, 72 hours, MTT, 0.016-50.0 μM tested) [µM] | CC50 (THLE2 cells) [µM] | CC50 (PH5CH cells) [µM]
c1ccc(-c2csc(Nc3ncccn3)n2)nc1 [Entry 1] | 1.39 | 40 | ≥ 50 | – | – | – | –
c1ccc(-c2csc(Nc3ncccn3)n2)cc1 [Entry 3] | 6.43 | 9.16 | – | – | – | – | –
c1cnc(Nc2nc(-c3cccnc3)cs2)nc1 [Entry 4] | 6.3 | 8.66 | – | – | – | – | –
c1cnc(Nc2nc(-c3ccncc3)cs2)nc1 [Entry 5] | 14.2 | 48.5 | – | – | – | – | –
c1ccc(Nc2nc(-c3ccccn3)cs2)cc1 [Entry 6] | 6.53 | – | – | – | – | – | –
c1ccc(Nc2nc(-c3ccccc3)cs2)cc1 [Entry 7] | 10.3 | 21.1 | – | – | – | – | –
Cc1ccnc(-c2csc(Nc3ncccn3)n2)c1 [Entry 8] | 0.563 | 14 | 34 | – | – | – | –
Brc1sc(Nc2ncccn2)nc1-c1ccccn1 [Entry 9] | 2.53 | 29.9 | – | – | – | – | –
Brc1cccc(-c2csc(Nc3ncccn3)n2)n1 [Entry 10] | 7.82 | 9.75 | – | – | – | – | –
c1ccc(-c2csc(Nc3cnccn3)n2)nc1 [Entry 11] | 5 | 0.539 | – | – | – | – | –
c1ccc(-c2csc(Nc3ccncn3)n2)nc1 [Entry 12] | 3.05 | 4.47 | – | – | – | – | –
Clc1cnc(Nc2nc(-c3ccccn3)cs2)nc1 [Entry 13] | 35 | ≥ 50 | – | – | – | – | –
Brc1cnc(Nc2nc(-c3ccccn3)cs2)nc1 [Entry 14] | 31.8 | 41 | – | – | – | – | –
CN(c1ncccn1)c1nc(-c2ccccn2)cs1 [Entry 15] | 5.32 | 49.1 | 49.7 | – | – | – | –
CC(C)N(c1ncccn1)c1nc(-c2ccccn2)cs1 [Entry 16] | – | ≥ 50 | ≥ 50 | 25.7 | – | – | –
OCCN(c1ncccn1)c1nc(-c2ccccn2)cs1 [Entry 17] | 48.9 | ≥ 50 | ≥ 50 | – | – | – | –
c1ccc(CN(c2ncccn2)c2nc(-c3ccccn3)cs2)cc1 [Entry 18] | ≥ 50 | 49.8 | 46.9 | – | – | – | –
CCOC(=O)c1sc(Nc2ncccn2)nc1-c1ccccn1 [Entry 19] | 0.362 | 38.7 | 44 | – | – | – | –
OCc1sc(Nc2ncccn2)nc1-c1ccccn1 [Entry 20] | 11.3 | 31.1 | 46.9 | – | – | – | –
CCc1sc(Nc2ncccn2)nc1-c1ccccn1 [Entry 21] | 15.4 | 24.7 | 44.1 | – | – | – | –
Cc1sc(Nc2ncccn2)nc1-c1ccccn1 [Entry 22] | 5.92 | 42.9 | 42 | – | – | – | –
Cc1ccc2nc(Nc3nc(-c4ccccn4)cs3)sc2c1 [Entry 23] | 4.92 | 3.96 | 3.97 | – | – | – | –
CC(C)c1sc(Nc2ncccn2)nc1-c1ccccn1 [Entry 24] | – | ≥ 50 | ≥ 50 | 11.3 | – | – | –

SMILES | CC50 (Huh7 cells; [3]) [µM] | CC50 at 72 h [1] [µM] | CC50 at 72 h [2] [µM] | CC50 (Huh7 cells; Homo sapiens, Huh-7, 72 h) [µM] | CC50 (Huh7 cells; hepatocellular carcinoma derived Huh7 cells, 72 hours, MTT, 0.016-50.0 μM tested) [µM] | CC50 (THLE2 cells) [µM] | CC50 (PH5CH cells) [µM]
CCCCCc1sc(Nc2ncccn2)nc1-c1ccccn1 [Entry 25] | 25.9 | ≥ 50 | ≥ 50 | – | – | – | –
Cc1cnc(-c2csc(Nc3ncccn3)n2)c(C)c1 [Entry 27] | 2.74 | 2.23 | 47.6 | – | – | – | –
Oc1cccc(-c2csc(Nc3ncccn3)n2)n1 [Entry 28] | 46.2 | ≥ 50 | ≥ 50 | – | – | – | –
N#Cc1sc(Nc2ncccn2)nc1-c1ccccn1 [Entry 29] | – | – | – | – | ≤ 0.016 | ≥ 50 | ≥ 50
Cc1ccnc(Nc2nc(-c3ccccn3)cs2)n1 [Entry 30] | ≥ 50 | ≥ 50 | ≥ 50 | – | – | – | –
CCOC(=O)c1sc(Nc2nccc(C)n2)nc1-c1ccccn1 [Entry 31] | ≤ 0.016 | ≥ 50 | ≥ 50 | – | – | – | –
c1cnc(Nc2nc(-c3ccc4ccccc4n3)cs2)nc1 [Entry 32] | ≥ 50 | 8.02 | ≥ 50 | – | – | – | –
c1ccc(-c2nc(Nc3ncccn3)sc2C2CCCCC2)nc1 [Entry 33] | ≥ 50 | 3.54 | ≥ 50 | – | – | – | –
FC(F)(F)c1ccnc(Nc2nc(-c3ccccn3)cs2)n1 [Entry 34] | 26.6 | 37.8 | ≥ 50 | – | – | – | –
CCOC(=O)c1sc(Nc2ncccn2)nc1-c1cc(C)ccn1 [Entry 35] | 4.72 | 37.2 | 39.2 | – | – | – | –
CCOC(=O)c1sc(Nc2ncccn2)nc1-c1cccc(C)n1 [Entry 36] | ≥ 50 | ≥ 50 | ≥ 50 | – | – | – | –
O=C(NCc1ccccc1)c1sc(Nc2ncccn2)nc1-c1ccccn1 [Entry 37] | 17.7 | ≥ 50 | 31.5 | – | – | – | –
COC(=O)c1sc(Nc2ncccn2)nc1-c1ccccn1 [Entry 38] | 1.25 | 29.4 | 38.6 | – | – | – | –
CNC(=O)c1sc(Nc2ncccn2)nc1-c1ccccn1 [Entry 39] | 13 | 10.3 | 2.89 | – | – | – | –
CN(Cc1cnc2nc(N)nc(N)c2n1)c1ccc(C(=O)NC(CCC(=O)NCCOCCOCCOCCOCCOCCNC(=O)c2sc(Nc3ncccn3)nc2-c2ccccn2)C(=O)OC(C)(C)C)cc1 (stereo not drawn) [Entry 40] | 34.8 | ≥ 50 | ≥ 50 | – | – | – | –
NC(=O)c1sc(Nc2ncccn2)nc1-c1ccccn1 [Entry 41] | ≥ 50 | 26.6 | ≥ 50 | – | – | – | –
CC(=O)OCc1sc(Nc2ncccn2)nc1-c1ccccn1 [Entry 42] | 39.3 | ≥ 50 | ≥ 50 | – | – | – | –
CCCC(=O)OCc1sc(Nc2ncccn2)nc1-c1ccccn1 [Entry 43] | 11 | ≥ 50 | ≥ 50 | – | – | – | –
CC(C)(C)OC(=O)c1sc(N(c2ncccn2)C(C)(C)C)nc1-c1ccccn1 [Entry 44] | – | ≥ 50 | ≥ 50 | 20.5 | – | – | –
Oc1cccc(Nc2nc(-c3ccccc3)cs2)c1 [Entry 45] | 8 | ≥ 50 | – | – | – | – | –
Cc1c(Cl)cccc1Nc1nc(-c2ccccn2)cs1 [Entry 46] | 3.5 | – | – | – | – | – | –
N#Cc1sc(Nc2ncccn2)nc1-c1ccccn1 [Entry 47] | ≤ 0.016 | ≥ 50 | ≥ 50 | – | – | – | –
